Assay results from PubChem BioAssay (NCI).
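Results reflect a 48-hour exposure of cells in 96-well plates to compound at five concentrations. The concentration for full growth arrest is given as TGI.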

Experiments:
Assay in all cases: NCI anticancer screen, dose series, 48 h
ACHN renal = tested on: ACHN renal
U251 CNS = tested on: U251 CNS
TK-10 renal = tested on: TK-10 renal
UO-31 renal = tested on: UO-31 renal
OVCAR-8 ovarian = tested on: OVCAR-8 ovarian
PC-3 prostate = tested on: PC-3 prostate
SW-620 colon = tested on: SW-620 colon
SF-268 CNS = tested on: SF-268 CNS
SK-MEL-5 melanoma = tested on: SK-MEL-5 melanoma
COLO 205 colon = tested on: COLO 205 colon
HOP-62 NSCLC = tested on: HOP-62 NSCLC
HL-60(TB) leukemia = tested on: HL-60(TB) leukemia
K-562 leukemia = tested on: K-562 leukemia
SN12C renal = tested on: SN12C renal
HCC-2998 colon = tested on: HCC-2998 colon
SNB-19 CNS = tested on: SNB-19 CNS
RXF 393 renal = tested on: RXF 393 renal
EKVX NSCLC = tested on: EKVX NSCLC
RPMI-8226 leukemia = tested on: RPMI-8226 leukemia
MOLT-4 leukemia = tested on: MOLT-4 leukemia
HCT-15 colon = tested on: HCT-15 colon
NCI/ADR-RES ovarian = tested on: NCI/ADR-RES ovarian
SNB-75 CNS = tested on: SNB-75 CNS
BT-549 breast = tested on: BT-549 breast
HCT-116 colon = tested on: HCT-116 colon
NCI-H460 lung = tested on: NCI-H460 lung
OVCAR-3 ovarian = tested on: OVCAR-3 ovarian
SF-295 CNS = tested on: SF-295 CNS
SK-OV-3 ovarian = tested on: SK-OV-3 ovarian
UACC-257 melanoma = tested on: UACC-257 melanoma
KM12 colon = tested on: KM12 colon
M14 melanoma = tested on: M14 melanoma
OVCAR-4 ovarian = tested on: OVCAR-4 ovarian
SR leukemia = tested on: SR leukemia
SK-MEL-28 melanoma = tested on: SK-MEL-28 melanoma
MDA-MB-435 = tested on: MDA-MB-435
NCI-H522 lung = tested on: NCI-H522 lung
SF-539 CNS = tested on: SF-539 CNS
CCRF-CEM leukemia = tested on: CCRF-CEM leukemia
HS 578T breast = tested on: HS 578T breast
MDA-MB-231 breast = tested on: MDA-MB-231 breast
IGROV1 ovarian = tested on: IGROV1 ovarian
T-47D breast = tested on: T-47D breast
786-0 renal = tested on: 786-0 renal
HT29 colon = tested on: HT29 colon
UACC-62 melanoma = tested on: UACC-62 melanoma
DU-145 prostate = tested on: DU-145 prostate
MDA-N = tested on: MDA-N
NCI-H23 lung = tested on: NCI-H23 lung
MCF7 breast = tested on: MCF7 breast
A549 NSCLC = tested on: A549 NSCLC
NCI-H226 lung = tested on: NCI-H226 lung
CAKI-1 renal = tested on: CAKI-1 renal
LOX IMVI melanoma = tested on: LOX IMVI melanoma
MALME-3M melanoma = tested on: MALME-3M melanoma
OVCAR-5 ovarian = tested on: OVCAR-5 ovarian
HOP-92 NSCLC = tested on: HOP-92 NSCLC
A498 renal = tested on: A498 renal
SK-MEL-2 melanoma = tested on: SK-MEL-2 melanoma

Measured: TGI

CCC1CCC2c3c([nH]c4ccccc34)C3C(=O)N(c4ccc(OC)cc4)C(=O)C3C2C1 (configuration not stated)
75 µM: HL-60(TB) leukemia
85.8 µM: TK-10 renal
32.5 µM: MOLT-4 leukemia
68.1 µM: SF-295 CNS
41.9 µM: OVCAR-3 ovarian
41.1 µM: SNB-75 CNS
74.9 µM: SNB-19 CNS
60.8 µM: K-562 leukemia
66.8 µM: HS 578T breast
59.7 µM: A549 NSCLC
55.8 µM: T-47D breast
32.1 µM: SR leukemia
26.7 µM: CCRF-CEM leukemia
36 µM: OVCAR-4 ovarian
82.4 µM: SW-620 colon
36.2 µM: U251 CNS
not listed: CAKI-1 renal | LOX IMVI melanoma | MALME-3M melanoma | OVCAR-5 ovarian | HOP-92 NSCLC | A498 renal | SK-MEL-2 melanoma
> 100 µM: all other assays above

C=Cc1cnc([N+](=O)[O-])n1C
99.9 µM: HS 578T breast
60.5 µM: SR leukemia
98.7 µM: A498 renal
not listed: K-562 leukemia | RXF 393 renal | SNB-75 CNS | OVCAR-4 ovarian | NCI-H522 lung | IGROV1 ovarian | UACC-62 melanoma | SK-MEL-2 melanoma
> 100 µM: all other assays above

O=c1c(-c2ccc(O)cc2)coc2cc(O)cc(O)c12
not listed: HOP-62 NSCLC | RXF 393 renal | SNB-75 CNS | HCT-116 colon | OVCAR-3 ovarian | SK-OV-3 ovarian | UACC-257 melanoma | CCRF-CEM leukemia | MDA-MB-231 breast | CAKI-1 renal | LOX IMVI melanoma | A498 renal | SK-MEL-2 melanoma
> 100 µM: all other assays above

Cc1cc(C)c2c(c1)CC1(Cc3c(C)cc(C)cc3C1=O)C2=O (configuration not stated)
not listed: HOP-62 NSCLC | HCT-116 colon | SK-OV-3 ovarian | T-47D breast | HT29 colon | NCI-H23 lung
> 100 µM: all other assays above
